pIC50: −log10 of the molar value. Read-outs that look alike come from different tables or passages of the source. Where a SMILES comes first, the peptide text is derived from it.
Tests used:
HELA cells (Acc57) = test: Cytotoxicity assay (MTT reduction), HELA cells; type: cell-based; details: Hela cells
Experimental: The cytotoxicity of the peptides to HELA cells (Acc57) and COS-7 cells (CRL-1651) was determined using the MTT reduction assay [see ref. 2 and 3, below]. Briefly the method was as follows: HELA cells and COS-7 cells were seeded at 7.0×10^3 and, respectively, 4.5×10^3 cells per well and grown in 96-well microtiter plates for 24 hours at 37° C. at 5% CO2. At this point, time zero (Tz) was determined by MTT reduction (see below). The supernatant of the remaining wells was discarded, and fresh medium and the peptides in serial dilutions of 12.5, 25 and 50 μM were pipetted into the wells. Each peptide concentration was assayed in triplicate. Incubation of the cells was continued for 48 hours at 37° C. at 5% CO2. Wells were then washed once with phosphate buffered saline (PBS) and subsequently 100 μl MTT reagent (0.5 mg/ml in medium RPMI1640 and, respectively, DMEM) were added to the wells. This was incubated at 37° C. for 2 hours and subsequently the medium was aspirated and 100 μl isopropanol were added to each well. The absorbance at 595 nm of the solubilized product was measured (OD595peptide). For each concentration averages were calculated from triplicates. The percentage of growth was calculated as follows: (OD595peptide-OD595Tz-OD595Empty well)/(OD595Tz-OD595Empty well)×100% and was plotted for each peptide concentration.
The LC 50 values (Lethal Concentration, defined as the concentration that kills 50% of the cells) were determined for each peptide by using the trend line function of EXCEL (Microsoft Office 2000) for the concentrations (50, 25, 12.5 and 0 μM), the corresponding growth percentages and the value −50, (=TREND(C50:C0,%50:%0,−50)).
The GI 50 (Growth Inhibition) concentrations were calculated for each peptide by using a trend line function for the concentrations (50, 25, 12.5 and 0 μg/ml), the corresponding percentages and the value 50, (=TREND (C50:C0,%50:%0,50).

[1] = target: T1, CathepsinG, from human neutrophils (Homo sapiens, UniProt P08311); test: Enzymatic assay, cathepsin G
T1 sequence (P08311 21-244): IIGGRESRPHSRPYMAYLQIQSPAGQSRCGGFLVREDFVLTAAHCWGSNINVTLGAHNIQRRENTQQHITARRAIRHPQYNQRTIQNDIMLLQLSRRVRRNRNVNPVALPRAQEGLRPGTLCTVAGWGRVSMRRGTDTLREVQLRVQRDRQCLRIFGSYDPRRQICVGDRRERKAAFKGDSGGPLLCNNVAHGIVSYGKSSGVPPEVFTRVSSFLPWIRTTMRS

[2] = target: Chymotrypsin, from human pancreas (Homo sapiens, UniProt P17538); test: Enzymatic assay, chymotrypsin; details: at 100 μM
Chain of Chymotrypsin, from human pancreas (P17538 19-263): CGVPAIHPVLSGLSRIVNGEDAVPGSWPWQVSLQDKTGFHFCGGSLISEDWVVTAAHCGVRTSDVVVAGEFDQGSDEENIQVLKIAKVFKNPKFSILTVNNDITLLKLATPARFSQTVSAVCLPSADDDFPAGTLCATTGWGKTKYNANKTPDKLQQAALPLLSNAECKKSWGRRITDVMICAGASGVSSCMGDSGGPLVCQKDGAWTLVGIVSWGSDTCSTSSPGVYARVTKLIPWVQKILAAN

[3] = target: Thrombin, from Human Plasma (Homo sapiens, UniProt P00734); test: Enzymatic assay, thrombin
[4] = target: Urokinase from human urine (Homo sapiens, UniProt P00749); test: Enzymatic assay, urokinase
[5] = target: Coagulation Factor Xa, from uman plasma (Homo sapiens, UniProt P00742); test: Enzymatic assay, coagulation factor Xa
Chain of Coagulation Factor Xa, from uman plasma (P00742 235-488 limits assumed): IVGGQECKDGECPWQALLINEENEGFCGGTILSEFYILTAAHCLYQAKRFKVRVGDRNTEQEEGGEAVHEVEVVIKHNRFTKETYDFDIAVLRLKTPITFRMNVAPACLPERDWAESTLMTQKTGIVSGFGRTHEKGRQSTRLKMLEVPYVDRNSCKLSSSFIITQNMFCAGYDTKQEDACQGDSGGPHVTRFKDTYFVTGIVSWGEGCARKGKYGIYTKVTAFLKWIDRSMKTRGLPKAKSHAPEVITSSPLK
Chain of Coagulation Factor Xa, from uman plasma (P00742 41-179 limits assumed): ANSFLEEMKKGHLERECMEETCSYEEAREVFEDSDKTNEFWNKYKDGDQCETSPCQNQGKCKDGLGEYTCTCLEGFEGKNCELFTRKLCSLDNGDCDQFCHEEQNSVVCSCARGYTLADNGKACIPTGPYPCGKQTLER

[6] = target: Trypsin, from human pancreas (Homo sapiens, UniProt P07477); test: Enzymatic assay, trypsin; details: at 100 μM
Chymase, from human skin = target: T2, Chymase, from human skin (Homo sapiens, UniProt P23946); test: Enzymatic assay, chymase
T2 sequence (P23946 22-247): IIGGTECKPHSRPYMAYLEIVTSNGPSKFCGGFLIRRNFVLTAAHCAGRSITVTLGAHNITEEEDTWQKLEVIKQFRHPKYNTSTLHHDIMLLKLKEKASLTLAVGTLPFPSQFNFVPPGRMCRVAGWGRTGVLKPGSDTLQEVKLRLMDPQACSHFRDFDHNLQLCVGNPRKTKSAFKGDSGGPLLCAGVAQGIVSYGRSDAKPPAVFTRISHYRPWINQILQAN

[7] = test system: Tryptase, from human lung; test: Enzymatic assay, tryptase; details: at 100 μM
[8] = target: T3, Elastase from human neutrophils (Homo sapiens, UniProt P08246); test: Enzymatic assay, elastase; details: Elastase IC50
T3 sequence (P08246 30-267): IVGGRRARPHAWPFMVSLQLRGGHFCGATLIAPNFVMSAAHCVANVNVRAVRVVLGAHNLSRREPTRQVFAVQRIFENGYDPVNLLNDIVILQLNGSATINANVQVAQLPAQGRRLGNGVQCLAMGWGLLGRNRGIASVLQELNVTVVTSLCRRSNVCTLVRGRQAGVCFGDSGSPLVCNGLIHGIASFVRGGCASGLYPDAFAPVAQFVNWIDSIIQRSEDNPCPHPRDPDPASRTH

Structure (SMILES)	Cytotoxicity LC50/GI50 Hela cells (HELA cells (Acc57)) [nM]	pIC50 ([1]; Cathepsin G IC50)	Chymotrypsin at 100 μM % [2] [%]	Thrombin at 100 μM % [3] [%]	Urokinase at 100 μM % [4] [%]	FXa at 100 μM % [5] [%]	Trypsin at 100 μM % [6] [%]	Chymase at 100 μM % (Chymase, from human skin) [%]	Tryptase at 100 μM % [7] [%]	pIC50 [8]	pIC50 ([1]; read-out: Cathepsin G IC50)	Tryptase At 100 μM % [7] [%]	Cathepsin G at 100 μM % ([1]; at 100 μM) [at 100%]
CCCC[C@@H]1NC(=O)[C@@H]2CCCN2C(=O)[C@H]2CCCN2C(=O)[C@H](Cc2ccc(O)cc2)NC(=O)[C@@H]2CSSC[C@H](NC1=O)C(=O)N[C@@H]([C@@H](C)O)C(=O)N[C@@H](C)C(=O)N[C@@H](CO)C(=O)N[C@@H](CC1CCCC1)C(=O)N1CCC[C@H]1C(=O)N1CCC[C@H]1C(=O)N[C@@H](CCC(N)=O)C(=O)N2 [Ex. 112] (HELM PEPTIDE1{[Nle].C.T.A.S.[O=C([C@H](CC1CCCC1)N[*:1])[*:2]].P.P.Q.C.Y.[dP].P}$PEPTIDE1,PEPTIDE1,2:R3-10:R3|PEPTIDE1,PEPTIDE1,1:R1-13:R2$$$V2.0)	33000	–	–	–	–	–	–	–	–	–	–	–	–
CC[C@H](C)[C@@H]1NC(=O)[C@@H]2CCCN2C(=O)[C@@H]2CCCN2C(=O)[C@H](CC(=O)O)NC(=O)[C@H](CO)NC(=O)[C@H](CCCCN)NC(=O)[C@H]([C@@H](C)O)NC(=O)[C@@H]2CSSC[C@H](NC1=O)C(=O)N[C@@H](CC(=O)O)C(=O)N1CCC[C@@H]1C(=O)N1CCC[C@H]1C(=O)N[C@@H](Cc1ccccc1)C(=O)N2 [Ex. 2] (HELM PEPTIDE1{F.C.T.K.S.D.P.P.I.C.D.[dP].P}$PEPTIDE1,PEPTIDE1,2:R3-10:R3|PEPTIDE1,PEPTIDE1,1:R1-13:R2$$$V2.0)	–	7.08	2.9	9.2	0.9	5.3	92	0	39.6	< 4.00	–	–	–
CCCC[C@@H]1NC(=O)[C@@H]2CCCN2C(=O)[C@H]2CCCN2C(=O)[C@H](Cc2ccccc2Cl)NC(=O)[C@@H]2CSSC[C@H](NC1=O)C(=O)N[C@@H]([C@@H](C)O)C(=O)N[C@@H](C)C(=O)N[C@@H](CO)C(=O)N[C@@H]([C@@H](C)CC)C(=O)N1CCC[C@H]1C(=O)N1CCC[C@H]1C(=O)N[C@@H](CCC(N)=O)C(=O)N2 [Ex. 144] (HELM PEPTIDE1{[Nle].C.T.A.S.I.P.P.Q.C.[O=C([C@H](Cc1ccccc1Cl)N[*:1])[*:2]].[dP].P}$PEPTIDE1,PEPTIDE1,2:R3-10:R3|PEPTIDE1,PEPTIDE1,1:R1-13:R2$$$V2.0)	–	–	80.6	3.6	6.2	0	7.5	0	–	8.12	4.67	0	–
CC[C@H](C)[C@@H]1NC(=O)[C@@H]2CCCN2C(=O)[C@@H]2CCCN2C(=O)[C@H](CC(=O)O)NC(=O)[C@H](CO)NC(=O)[C@H](CCCCN)NC(=O)[C@H]([C@@H](C)O)NC(=O)[C@@H]2CSSC[C@H](NC1=O)C(=O)N[C@@H](Cc1ccc(O)cc1)C(=O)N1CCC[C@@H]1C(=O)N1CCC[C@H]1C(=O)N[C@@H](Cc1ccc(O)cc1)C(=O)N2 [Ex. 26] (HELM PEPTIDE1{Y.C.T.K.S.D.P.P.I.C.Y.[dP].P}$PEPTIDE1,PEPTIDE1,2:R3-10:R3|PEPTIDE1,PEPTIDE1,1:R1-13:R2$$$V2.0)	–	7.31	2.2	3	3.1	6	84	0	66.4	< 4.00	–	–	–
CCCCCCCC[C@@H]1NC(=O)[C@@H]2CCCN2C(=O)[C@H]2CCCN2C(=O)[C@H](Cc2ccc(O)cc2)NC(=O)[C@H]([C@@H](C)O)NC(=O)[C@H](CCC(N)=O)NC(=O)[C@@H]2CCCN2C(=O)[C@@H]2CCCN2C(=O)[C@H]([C@@H](C)CC)NC(=O)[C@H](CO)NC(=O)[C@H](C)NC(=O)[C@H]([C@@H](C)O)NC(=O)[C@H](CCC(N)=O)NC1=O [Ex. 154] (HELM PEPTIDE1{[CCCCCCCC[C@H](N[*:1])C(=O)[*:2]].Q.T.A.S.I.P.P.Q.T.Y.[dP].P}$PEPTIDE1,PEPTIDE1,1:R1-13:R2$$$V2.0)	–	–	4	7	1	0	0	0	–	8.08	–	15	27
CC[C@H](C)[C@@H]1NC(=O)[C@@H]2CCCN2C(=O)[C@@H]2CCCN2C(=O)[C@H](CC(=O)O)NC(=O)[C@H](CO)NC(=O)[C@H](CCCCN)NC(=O)[C@H]([C@@H](C)O)NC(=O)[C@@H]2CSSC[C@H](NC1=O)C(=O)N[C@@H](CC(N)=O)C(=O)N1CCC[C@@H]1C(=O)N1CCC[C@H]1C(=O)N[C@@H](Cc1ccc(N)cc1)C(=O)N2 [Ex. 31] (HELM PEPTIDE1{[Nc1ccc(C[C@H](N[*:1])C(=O)[*:2])cc1].C.T.K.S.D.P.P.I.C.N.[dP].P}$PEPTIDE1,PEPTIDE1,2:R3-10:R3|PEPTIDE1,PEPTIDE1,1:R1-13:R2$$$V2.0)	–	7.47	15	10	15	8	98	12	76	< 4.00	–	–	–
CC[C@H](C)[C@@H]1NC(=O)[C@@H]2CCCN2C(=O)[C@@H]2CCCN2C(=O)[C@H](CC(=O)O)NC(=O)[C@H](CO)NC(=O)[C@H](CCCCN)NC(=O)[C@H]([C@@H](C)O)NC(=O)[C@@H]2CSSC[C@H](NC1=O)C(=O)N[C@@H](CO)C(=O)N[C@H](C)C(=O)N[C@@H](CC(=O)O)C(=O)N[C@@H](Cc1ccccc1)C(=O)N2 [Ex. 68] (HELM PEPTIDE1{F.C.T.K.S.D.P.P.I.C.S.[dA].D}$PEPTIDE1,PEPTIDE1,2:R3-10:R3|PEPTIDE1,PEPTIDE1,1:R1-13:R2$$$V2.0)	–	7.23	4.3	5.4	4.6	8.6	84.2	0	21.3	< 4.00	–	–	–

Reference: patent US8658604B2, “Template-fixed beta-hairpin peptidomimetics with protease inhibitory activity” (Polyphor Ltd, priority 2005, dated 2014)
